Results on 7 compounds are retold here after PubChem BioAssay (NCI).

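Results reflect a 48-hour exposure of cells in 96-well plates to compound at five concentrations. TGI denotes the concentration required for complete inhibition of growth.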

Some test systems named below: NCI-H460 lung; CCRF-CEM leukemia; KM12 colon; OVCAR-5 ovarian; MDA-MB-231 breast; COLO 205 colon; MOLT-4 leukemia; K-562 leukemia; SNB-19 CNS; HS 578T breast; HCC-2998 colon; SK-MEL-28 melanoma.
Assay in all cases: NCI-60 cell line screen, 48 h

With `CCOC(=O)c1nc2cc(C(F)(F)F)ccc2nc1Oc1ccc(C#N)cc1`, the TGI in the assay with NCI-H460 lung, with CCRF-CEM leukemia, in the assay on KM12 colon, in the assay on OVCAR-5 ovarian, in the assay on MDA-MB-231 breast and in the assay on COLO 205 colon was more than 100 µM in each case. Moreover, the TGI in the assay with MOLT-4 leukemia, with K-562 leukemia, in the assay with SNB-19 CNS, with HS 578T breast, in the assay on HCC-2998 colon and with SK-MEL-28 melanoma was more than 100 µM each time.
Consider `COc1ccc2c(c1)Cc1c(NCCN(C)C)ccc(C(=O)NCCCN(C)CCCNC(=O)c3ccc(NCCN(C)C)c4c3Nc3ccc(OC)cc3C4)c1N2`, for which the TGI came to 0.175 µM in the assay on NCI-H460 lung; 5.49 µM in the assay on CCRF-CEM leukemia; 0.887 µM in the assay on KM12 colon; 0.631 µM with OVCAR-5 ovarian; 0.419 µM in the assay with MDA-MB-231 breast; 0.207 µM in the assay with COLO 205 colon. Besides, the TGI in the assay on MOLT-4 leukemia was found to be 2.62 µM; with K-562 leukemia, 3.14 µM; with SNB-19 CNS, 1.13 µM; in the assay on HS 578T breast it was 0.332 µM; in the assay with HCC-2998 colon, 0.168 µM; in the assay on SK-MEL-28 melanoma it was 1.46 µM.
`C=CCN(c1cc(OC)c(NC(C)=O)cc1[N+](=O)[O-])S(C)(=O)=O`: the TGI in the assay with NCI-H460 lung, in the assay on CCRF-CEM leukemia, in the assay on KM12 colon, in the assay with OVCAR-5 ovarian, in the assay with MDA-MB-231 breast and in the assay on COLO 205 colon was more than 100 µM each time. In addition, the TGI with MOLT-4 leukemia, in the assay on K-562 leukemia, in the assay with SNB-19 CNS, in the assay with HS 578T breast, with HCC-2998 colon and in the assay on SK-MEL-28 melanoma was more than 100 µM throughout.
On to `C=C(Cl)C(Cl)(CBr)CCC(Br)C(C)(C)Br` (centres undefined), for which the TGI amounted to 3.71 µM in the assay on NCI-H460 lung; 23.5 µM in the assay on CCRF-CEM leukemia; 3.45 µM in the assay with KM12 colon; 25.4 µM in the assay on OVCAR-5 ovarian; 27.6 µM in the assay on MDA-MB-231 breast; 10.8 µM in the assay on COLO 205 colon. Further, the TGI with MOLT-4 leukemia came out at 25.3 µM; with K-562 leukemia, 16.3 µM; in the assay with SNB-19 CNS, 23.1 µM; with HS 578T breast, 12.1 µM; in the assay with HCC-2998 colon it was 19.9 µM; in the assay on SK-MEL-28 melanoma, 10.1 µM.
Consider `NC1N=C(c2ccc(Cl)cc2)C2=C(N1)c1ccccc1CC2` (centres undefined), for which the TGI in the assay with NCI-H460 lung was more than 100 µM; in the assay with CCRF-CEM leukemia, more than 100 µM; with KM12 colon it was more than 67 µM; in the assay on OVCAR-5 ovarian, more than 100 µM; with MDA-MB-231 breast it was more than 100 µM; in the assay on COLO 205 colon it was more than 100 µM. Besides, the TGI in the assay with MOLT-4 leukemia is more than 31.4 µM; with K-562 leukemia, more than 26.1 µM; with SNB-19 CNS it was more than 100 µM; in the assay on HS 578T breast, more than 100 µM; in the assay with HCC-2998 colon, 18.5 µM; in the assay on SK-MEL-28 melanoma it was more than 100 µM.
Turning to `CCOC1CN=C(Nc2cccc3ccccc23)S1` (centres undefined), the TGI in the assay on NCI-H460 lung, with CCRF-CEM leukemia, with KM12 colon, with OVCAR-5 ovarian, in the assay on MDA-MB-231 breast and in the assay on COLO 205 colon was more than 10 µM in each case. Further, the TGI in the assay with MOLT-4 leukemia, in the assay with K-562 leukemia, in the assay on SNB-19 CNS, in the assay with HS 578T breast, in the assay on HCC-2998 colon and in the assay on SK-MEL-28 melanoma was more than 10 µM throughout.
Regarding `N#CC(c1ccccc1)N(CCCCCCN(C(=O)c1ccccc1)C(C#N)c1ccccc1)C(=O)c1ccccc1` (centres undefined), the TGI in the assay on NCI-H460 lung is 84.2 µM; in the assay on CCRF-CEM leukemia, more than 100 µM; with KM12 colon, more than 100 µM; in the assay with OVCAR-5 ovarian, more than 100 µM; with MDA-MB-231 breast, more than 100 µM; with COLO 205 colon, 39.8 µM. Also, the TGI was more than 100 µM in the assay with MOLT-4 leukemia; more than 100 µM in the assay on K-562 leukemia; more than 100 µM in the assay on SNB-19 CNS; 83.6 µM with HS 578T breast; 48.1 µM with HCC-2998 colon; more than 100 µM with SK-MEL-28 melanoma.
